{"source": "patent US4085134A", "about": "“Amino-phosphonic-sulfonic acids” (Petrolite Corporation, priority 1974, dated 1978)", "key": {"[1]": {"conditions": "powerful sequesterants; background statement; cited from earlier work"}, "[2]": {"assay": "Calcium Scale Inhibition Test", "conditions": "180° F, samples at 2 and 4 hour periods", "method": "Calcium Scale Inhibition Test\nThe procedure utilized to determine the effectiveness of scale inhibitors in regard to calcium scale is as follows:\nSeveral 50 ml. samples of a 0.04 sodium bicarbonate solution are placed in 100 ml. bottles. To these solutions is added the inhibitor in various known concentrations. 50 ml. samples of a 0.02 M CaCl2 solution are then added.\nA total hardness determination is then made on the 50-50 mixture utilizing the well known Schwarzenbach titration. The samples are placed in a water bath and heated at 180° F. 10 ml. samples are taken from each bottle at 2 and 4 hour periods. These samples are filtered through millipore filters and the total hardness of the filtrates are determined by titration."}}, "note": "Structures can show the parent of a compound that is named as a salt.", "data": [{"smiles": "O=C(O)CN(CCN(CC(=O)O)CC(=O)O)CC(=O)O", "note": "[ethylenediamine tetracetic acid salts, ethylenediamine tetracetic acid]", "values": [{"measurement": "threshold activities", "setting": "[1]", "result": "no threshold activities"}]}, {"smiles": "CCCCCCCCN(CCCS(=O)(=O)O)CP(=O)(O)O", "note": "[Example 4]", "values": [{"measurement": "% Inhibition (calcium scale inhibition)", "setting": "[2]; 100 ppm", "result": 24, "unit": "%"}, {"measurement": "% Inhibition (calcium scale inhibition)", "setting": "[2]; 200 ppm", "result": 60, "unit": "%"}]}, {"smiles": "O=P(O)(O)CN(CCCS(=O)(=O)O)C1CCCCC1", "note": "[Example 1]", "values": [{"measurement": "% Inhibition (calcium scale inhibition)", "setting": "[2]; 100 ppm", "result": 86, "unit": "%"}]}, {"smiles": "O=P(O)(O)CN(CCCS(=O)(=O)O)CCN(CCN(CCCS(=O)(=O)O)CP(=O)(O)O)CP(=O)(O)O", "note": "[Example 15]", "values": [{"measurement": "% Inhibition (calcium scale inhibition)", "setting": "[2]; 10 ppm", "result": 42, "unit": "%"}, {"measurement": "% Inhibition (calcium scale inhibition)", "setting": "[2]; 50 ppm", "result": 95, "unit": "%"}]}, {"smiles": "O=P(O)(O)CN(CCCS(=O)(=O)O)CCN(CCCS(=O)(=O)O)CP(=O)(O)O", "note": "[Example 11]", "values": [{"measurement": "% Inhibition (calcium scale inhibition)", "setting": "[2]; 50 ppm", "result": 95, "unit": "%"}, {"measurement": "% Inhibition (calcium scale inhibition)", "setting": "[2]; 100 ppm", "result": 100, "unit": "%"}]}, {"smiles": "O=P(O)(O)CN(CCCS(=O)(=O)O)CCN(CCN(CP(=O)(O)O)CP(=O)(O)O)CP(=O)(O)O", "note": "[Example 14]", "values": [{"measurement": "% Inhibition (calcium scale inhibition)", "setting": "[2]; 10 ppm", "result": 66, "unit": "%"}, {"measurement": "% Inhibition (calcium scale inhibition)", "setting": "[2]; 100 ppm", "result": 100, "unit": "%"}]}]}
